Experimental data from EP0049801B1, “Sucrose-mutase, immobilized sucrose-mutase and use of this immobilized sucrose-mutase for the production of isomaltulose(6-O-alpha-D-glucopyranosido-D fructose)” (BAYER AG, priority 1980, dated 1982).

System: Saccharose-Mutase
Test: Influence of ions on the enzymatic reaction
Assay type: biochemical, Protaminobacter rubrum
Protocol: Das freie Enzym wird bei Temperaturen > 40 °C rasch inaktiviert. Die Reaktion wird durch CU- + Zn-Ionen stark gehemmt.

Row | SMILES | Einfluß auf die enzymatische Aktivität
1 | OB(O)O [Borat] | keinen Einfluß
2 | [Cu+2] [CU] | stark gehemmt
